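Each compound was tested at five concentrations against cells in 96-well plates for 48 hours. The concentration for 50% growth inhibition is given as GI50. TGI is the concentration that stops growth completely.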

Test systems include MALME-3M melanoma; CAKI-1 renal; TK-10 renal; SF-268 CNS; MDA-MB-231 breast; IGROV1 ovarian; SF-539 CNS; COLO 205 colon; MDA-MB-435; UACC-62 melanoma.
Assay in all cases: NCI-60 cell line screen, 48 h

As for `Cc1c(-c2ccc(O)cc2)oc(=O)c2ccc(O)cc12`, the GI50 with MALME-3M melanoma was 32.7 µM; in the assay with CAKI-1 renal, 22.4 µM; in the assay on TK-10 renal it was 27.4 µM; in the assay on SF-268 CNS, 55.4 µM; in the assay on MDA-MB-231 breast it was over 100 µM; in the assay on IGROV1 ovarian, 35.7 µM. The GI50 is 36.7 µM with SF-539 CNS, over 100 µM in the assay on COLO 205 colon, 15.4 µM in the assay with MDA-MB-435 and 35.2 µM with UACC-62 melanoma. Further, the TGI with MALME-3M melanoma, in the assay on CAKI-1 renal, with TK-10 renal, with SF-268 CNS, in the assay on MDA-MB-231 breast and in the assay with IGROV1 ovarian was over 100 µM each time. For the same molecule, the TGI in the assay on SF-539 CNS is over 100 µM; in the assay on COLO 205 colon, over 100 µM; in the assay with MDA-MB-435, 85.2 µM; with UACC-62 melanoma it was over 100 µM.

As to `COc1ccc(C(=O)O[C@H]2[C@H](O[C@H]3[C@@H](O)COC(O[C@H]4C[C@H]5[C@@H]6CC=C7C[C@@H](O)CC[C@]7(C)[C@H]6CC[C@]5(C)[C@H]4[C@H](C)C(=O)CCC(C)C)[C@@H]3OC(C)=O)OC[C@@H](O)[C@@H]2O)c(C)c1` (some centres undefined), the GI50 was 0.0127 µM in the assay with MALME-3M melanoma; under 0.01 µM in the assay with CAKI-1 renal; 0.27 µM with TK-10 renal; under 0.01 µM in the assay on SF-268 CNS; 0.146 µM in the assay with MDA-MB-231 breast; 0.0723 µM in the assay on IGROV1 ovarian. In addition, the GI50 in the assay on SF-539 CNS is under 0.01 µM; in the assay with COLO 205 colon, 0.0178 µM; in the assay with MDA-MB-435, under 0.01 µM; with UACC-62 melanoma it was under 0.01 µM. Besides, the TGI with MALME-3M melanoma was determined as 11.6 µM; in the assay on CAKI-1 renal, 1.08 µM; with TK-10 renal it was 34.8 µM; in the assay with SF-268 CNS, 3.4 µM; in the assay with MDA-MB-231 breast, 18.1 µM; with IGROV1 ovarian it was 48.9 µM. Moreover, the TGI in the assay with SF-539 CNS was under 0.01 µM; in the assay on COLO 205 colon, 0.133 µM; with MDA-MB-435, 0.0774 µM; with UACC-62 melanoma, under 0.01 µM.

`NC1=NC(=O)/C(=C/c2ccc3ncccc3c2)S1`: the GI50 in the assay with MALME-3M melanoma, with CAKI-1 renal, with TK-10 renal, in the assay on SF-268 CNS, in the assay with MDA-MB-231 breast and in the assay with IGROV1 ovarian was over 25 µM in each case. The GI50 in the assay on SF-539 CNS is over 25 µM; in the assay with COLO 205 colon, over 25 µM; in the assay on MDA-MB-435, over 10.9 µM; in the assay on UACC-62 melanoma it was over 25 µM. Besides, the TGI in the assay on MALME-3M melanoma, in the assay on CAKI-1 renal, in the assay with TK-10 renal, in the assay on SF-268 CNS, in the assay on MDA-MB-231 breast and with IGROV1 ovarian was over 25 µM throughout. Further, the TGI in the assay on SF-539 CNS, in the assay with COLO 205 colon, with MDA-MB-435 and in the assay on UACC-62 melanoma was over 25 µM throughout.

Turning to `CCN(CC)CCN1C(=O)C2C3C(=O)CC(C)(CC3C)C2C1=O` (centres undefined), the GI50 in the assay with MALME-3M melanoma, with CAKI-1 renal, in the assay with TK-10 renal, in the assay on SF-268 CNS, in the assay with MDA-MB-231 breast and with IGROV1 ovarian was over 100 µM throughout. Besides, the GI50 in the assay with SF-539 CNS, in the assay on COLO 205 colon, with MDA-MB-435 and with UACC-62 melanoma was over 100 µM each time. Further, the TGI in the assay with MALME-3M melanoma, with CAKI-1 renal, in the assay on TK-10 renal, in the assay on SF-268 CNS, with MDA-MB-231 breast and in the assay with IGROV1 ovarian was over 100 µM each time. Besides, the TGI in the assay on SF-539 CNS, in the assay with COLO 205 colon, in the assay with MDA-MB-435 and with UACC-62 melanoma was over 100 µM throughout.

For `C(=Nc1cnc2ccccc2c1)c1ccc2ccccc2n1`, the TGI in the assay with MALME-3M melanoma, in the assay with CAKI-1 renal, in the assay with TK-10 renal, in the assay with SF-268 CNS, in the assay on MDA-MB-231 breast and with IGROV1 ovarian was over 100 µM each time. The TGI in the assay with SF-539 CNS, in the assay with COLO 205 colon, with MDA-MB-435 and with UACC-62 melanoma was over 100 µM in each case.

Consider `Nc1nnnc2nc[nH]c12`, for which the GI50 was 0.759 µM with MALME-3M melanoma; 0.221 µM in the assay on CAKI-1 renal; 0.5 µM with TK-10 renal; 3.19 µM in the assay on SF-268 CNS; 0.597 µM in the assay on MDA-MB-231 breast; 4.75 µM in the assay with IGROV1 ovarian. The GI50 in the assay with SF-539 CNS was 1.63 µM; in the assay with COLO 205 colon, 1.85 µM; in the assay on MDA-MB-435 it was 0.542 µM; with UACC-62 melanoma, 0.637 µM. For the same molecule, the TGI in the assay with MALME-3M melanoma is 7.06 µM; in the assay on TK-10 renal, over 41.5 µM; in the assay on SF-268 CNS, over 100 µM; with MDA-MB-231 breast, over 100 µM; in the assay on IGROV1 ovarian it was over 100 µM; in the assay on SF-539 CNS, 13.5 µM. The TGI with COLO 205 colon was 7.47 µM; in the assay with MDA-MB-435, 2.57 µM; in the assay on UACC-62 melanoma, 2.72 µM.

These data come from PubChem BioAssay (NCI).
